Biological target: T1, rM3Ds (Rattus norvegicus, UniProt P08483, A177S/A238G/A489L/DEL261-437/DEL441-478/E258S/I253V/I483M/INS256[…]/K178L/K182A/K255R/K484R/K486H/L173F/L482A/M480V/R171S/R176Q/R179M/S481M/T174R/T181R/T257A/Y148C)
T1 sequence (P08483 with tags, fused parts or gaps Y148C/R171S/L173F/T174R/R176Q/A177S/K178L/R179M/T181R/K182A/A238G/I253V/K255R/INS256[…]/T257A/E258S/DEL261-437/DEL441-478/M480V/S481M/L482A/I483M/K484R/K486H/A489L): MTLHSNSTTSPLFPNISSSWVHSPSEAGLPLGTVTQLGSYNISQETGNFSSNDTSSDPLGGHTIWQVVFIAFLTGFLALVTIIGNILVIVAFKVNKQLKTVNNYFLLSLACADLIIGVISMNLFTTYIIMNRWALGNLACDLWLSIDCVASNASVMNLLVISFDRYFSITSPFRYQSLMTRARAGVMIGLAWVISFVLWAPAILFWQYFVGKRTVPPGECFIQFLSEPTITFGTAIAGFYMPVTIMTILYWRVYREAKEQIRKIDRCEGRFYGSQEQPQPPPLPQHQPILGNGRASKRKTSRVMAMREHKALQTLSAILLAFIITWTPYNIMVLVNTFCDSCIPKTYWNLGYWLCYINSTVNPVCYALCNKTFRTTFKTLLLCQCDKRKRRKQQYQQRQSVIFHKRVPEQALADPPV
Test: Striatal slice whole-cell recordings of retrogradely labeled D1-MSNs, rM3Ds
Assay type: cell-based, mice
Set-up: 2A-EYFP (C); expressed in transfected cells; host or cells: neurons (striatal D1-MSNs) of mice or cynomolgus macaques, transduced in vivo by nigral AAV8R12-G88P7-rM3Ds-2A-EYFP
Settings: AAV8R12-G88P7-rM3Ds-2A-EYFP; CNO 10 μM; basal firing rate and resting membrane potential unaffected
From the text: Mice from different groups were anesthetized with […] isoflurane, and then decapitated. The brain was quickly extracted and placed in ice-cold N-methyl-D-glucamine (NMDG) cutting solution containing (in mM): 92 NMDG, 2.5 KCl, 25 NaHCO3, 1.25 NaH2PO4, 4.5 D-Glucose, 20 HEPES, 5 L-ascorbic acid, 3 Na-pyruvate, 2 Thiourea, 10 MgSO4, 0.5 CaCl2). The pH was adjusted to 7.2±0.1 using HCl and the osmolarity was adjusted to 305±5 mosmol/L using NMDG. The solution was bubbled with 95% O2/5% CO2 prior to use. Coronal striatum slices were cut in 250-[…]m thickness with a vibratome slicer (Leica, VT1200 S), and then incubated in artificial cerebrospinal fluid (aCSF) saturated with 95% O2/5% CO2 for at least 45 min at 37° C. before recording. The aCSF contains (in mM) 125 NaCl, 1.25 KCl, 25 NaHCO3, 1.25 KH2PO4, 25 D-Glucose, 2 CaCl2) and 1 MgCl2, supplemented with 2 mM Na-pyruvate, 3 mM Myo-inositol and 0.4 mM L-ascorbic acid.
The acute striatum slice was transferred to the recording chamber with a constant perfusion of oxygenized aCSF at the rate of 3 ml/min. Neurons were visualized using an upright microscope (Olympus, BX-51) with a 40× water immersion objective at room temperature (˜25° C.). […] Neurons were quickly visualized under fluorescence microscope and then patch clamp were achieved under infrared light illumination and CCD camera. […]

C[N+]1([O-])CCN(C2=Nc3cc(Cl)ccc3Nc3ccccc32)CC1 [CNO, Clozapine-N-oxide]
excitability of labeled striatal MSNs upon CNO: enhancement in the excitability
